Measured values reported in patent publication US9505758B2 (priority 2013, dated 2016).

What follows are molecules tested against T1, influenza A virus (IAV) PA-Nter fragment (amino acids 1-209) (Influenza A virus, UniProt P31343) (assay: FRET endonuclease activity assay). Conditions: calculated from initial reaction velocities (v0); 0.5 μM PA-Nter, 1.6 μM RNA substrate.
T1 construct: PA-Nter fragment (amino acids 1-209); made in house
Type: biochemical
Work on `O=C(O)c1cn(CC2(c3ccccc3)CCCC2)c2cccnc2c1=O` yielded an IC50 of 600 nM.
Molecule `O=C(O)c1cn(Cc2ccccc2-c2ccccc2)c2cccnc2c1=O` has an IC50 of 760 nM.
Work on `O=C(O)c1cn(CC2(c3ccccc3)CCCC2)c2nccnc2c1=O` yielded an IC50 of 9700 nM.
With `O=C(O)c1cn(Cc2ccccc2-c2ccccc2)c2nccnc2c1=O` the IC50 was 7800 nM.
`O=C(O)c1cn(Cc2ccccc2-c2ccc(Cl)cc2)c2cccnc2c1=O` gave an IC50 of 430 nM.
With `Cc1cnc2c(=O)c(C(=O)O)cn(Cc3ccccc3-c3ccccc3)c2c1` the IC50 was 570 nM.
With `O=C(O)c1cn(Cc2ccccc2-c2ccccc2)c2cc(Br)cnc2c1=O` [1-(Biphenyl-2-ylmethyl)-7-bromo-4-oxo-1,4-dihydro-1,5-naphthyridine-3-carboxylic acid] the IC50 was 1500 nM.
